Experimental data from patent US20080114005A1, “Fibrate Compounds Having Ppar Agonist Activity” (Dr. Reddy's Laboratories Limited, priority 2004, published 2008).

Legend:
[1] = system: Swiss albino mice; assay: plasma triglyceride lowering activity in Swiss albino mice; format: in vivo; conditions: 3.0 mg/kg orally for 6 days
Description: The properties of the derivatives of the invention were also evaluated in vivo. The following procedure was used to determine plasma triglyceride and total cholesterol lowering activity in Swiss albino mice.
Male Swiss albino mice (SAM) were obtained from National Institute Nutrition (NIN) and housed in Dr. Reddy's Laboratories Ltd (DRL) animal house. All these animals are maintained under 12 hour light and dark cycle at 25±1° C. Animals were given standard laboratory chow (NIN, Hyderabad, India) and water, ad libitum. SAM of 20-25 grams body weight range were used. See Oliver, P., Plancke, M. O., Marzin, D., Clavey, V., Sauzieres, J and Fruchart, J. C. Effects of fenofibrate, gemfibrozil and nicotinic acid on plasma lipoprotein levels in normal and hyperlipidemic mice, Atherosclerosis. 1988. 70: 107-114, incorporated herein by reference in its entirety. The test compounds can be administered orally to Swiss albino mice at the dose mentioned in table for 6 days. Control mice were treated with vehicle 0.25% Carboxymethylcellulose (CMC; dose 10 ml/kg). The blood samples from the retro-orbital sinus through heparinised capillary in EDTA containing tubes were collected in fed state 1 hour after drug administration on 0 and 6 days of treatment. After centrifugation plasma was separated for triglyceride measurement using commercial kits. See Wieland, O. Methods of Enzymatic analysis. Bergermeyer, H. O., Ed., 1963. 211-214; Trinder, P. Ann. Clin. Biochem. 1969. 6: 24-27, incorporated herein by reference in its entirety. Percent reduction was calculated as per the formula given in Petit, D., Bonnefis, M. T., Rey, C. and Infante, R. Effects of ciprofibrate on liver lipids and lipoprotein synthesis in normo- and hyperlipidemic rats. Atherosclerosis. 1988. 74 : 215-225.

[2] = target: T1, human PPARδ (Homo sapiens, UniProt Q03181); assay: in vitro PPARδ transactivation, GAL4-LBD luciferase reporter in HEK-293 cells; format: cell-based; conditions: luciferase fold activation relative to untreated cells
T1 construct: expressed in transfected cells; host or cells: HEK-293
T1 sequence (Q03181 211-439 limits assumed): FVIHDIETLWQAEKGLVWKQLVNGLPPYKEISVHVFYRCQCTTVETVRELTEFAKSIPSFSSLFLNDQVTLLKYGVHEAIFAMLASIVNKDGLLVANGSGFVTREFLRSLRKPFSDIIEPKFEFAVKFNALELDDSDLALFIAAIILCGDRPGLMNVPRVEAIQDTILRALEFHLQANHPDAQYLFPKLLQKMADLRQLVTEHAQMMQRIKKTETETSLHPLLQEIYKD
Description: The following procedure was used for in vitro determination of PPARα, γ and δ transactivation.
(§1) The ligand binding domain of human PPARγ1, PPARα or PPARδ was fused to the C-terminal end of DNA binding domain of yeast transcription factor GAL4 in eukaryotic expression vector. HEK-293 cells were transfected with either of these plasmids, reporter plasmid pGL2 (Gal4×5)˜SV40˜Luc and pAdVantage using superfect (Qiagen, Germany) for 3 hours. pAdVantage vector was used to enhance the luciferase expression. 48 hours after transfection, the cells were harvested and incubated overnight with or without test compounds at different concentrations. The cells were lysed and luciferase activity was measured using the LucLite kit (Packard USA). Luciferase activity was measured as fold activation relative to untreated cells.

[3] = target: T2, human PPARα (Homo sapiens, UniProt Q07869); assay: in vitro PPARα transactivation, GAL4-LBD luciferase reporter in HEK-293 cells; format: cell-based; conditions: luciferase fold activation relative to untreated cells
T2 construct: expressed in transfected cells; host or cells: HEK-293
T2 sequence (Q07869 239-466 limits assumed): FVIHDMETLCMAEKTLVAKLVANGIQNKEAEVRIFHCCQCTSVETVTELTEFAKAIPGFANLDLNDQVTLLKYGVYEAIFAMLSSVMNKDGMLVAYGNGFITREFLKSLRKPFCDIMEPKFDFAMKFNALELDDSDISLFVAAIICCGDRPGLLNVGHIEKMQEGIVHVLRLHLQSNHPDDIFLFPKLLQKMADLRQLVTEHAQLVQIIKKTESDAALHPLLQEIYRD
Excerpt: A number of derivatives of the invention have shown PPAR agonist activity. The following procedure was used for in vitro determination of PPARα, γ and δ transactivation.
as §1

SMILES	melting point [°C]	further results
CCOC(=O)C(C)(CC)Sc1ccc(OCCCn2c(C)nc3ccccc3c2=O)cc1 (stereo not shown) [Example 55, 2-Methyl-2-{4-[3-(2-methyl-4-oxo-4H-quinazolin-3-yl)-propoxy]-phenylsulfanyl}-butyric acid ethyl ester]	164 to 166	–
CCC(C)(Sc1ccc(OCCCn2c(C)nc3ccccc3c2=O)cc1)C(=O)O (stereo not shown) [Example 56, 2-Methyl-2-{4-[3-(2-methyl-4-oxo-4H-quinazolin-3-yl)-propoxy]-phenylsulfanyl}-butyric acid]	130 to 132	–
CCCc1nn(C)c2c(=O)n(CCOc3ccc(OC(C)(C)C(=O)O)cc3)cnc12 [Example 58, 2-Methyl-2-{4-[2-(1-methyl-7-oxo-3-propyl-1,7-dihydro-pyrazolo[4,3-d]pyrimidin-6-yl)-ethoxy]-phenoxy}-propionic acid]	144 to 146	–
CCCc1nn(C)c2c(=O)n(CCOc3ccc(OC(C)(C)C(=O)OCC)cc3)c(C)nc12 [Example 59, 2-{4-[2-(1,5-Dimethyl-7-oxo-3-propyl-1,7-dihydro-pyrazolo[4,3-d]pyrimidin-6-yl)-ethoxy]-phenoxy}-2-methyl-propionic acid ethyl ester]	98 to 100	–
CCCc1nn(C)c2c(=O)n(CCOc3ccc(OC(C)(C)C(=O)O)cc3)c(C)nc12 [Example 60, 2-{4-[2-(1,5-Dimethyl-7-oxo-3-propyl-1,7-dihydro-pyrazolo[4,3-d]pyrimidin-6-yl)-ethoxy]-phenoxy}-2-methyl-propionic acid]	146 to 148	–
CCCc1nn(C)c2c(=O)n(CCNc3ccc(OC(C)(C)C(=O)O)cc3)c(C)nc12 [Example 62, 2-{4-[2-(1,5-Dimethyl-7-oxo-3-propyl-1,7-dihydro-pyrazolo[4,3-d]pyrimidin-6-yl)-ethylamino]-phenoxy}-2-methyl-propionic acid]	88 to 90	–
CCCc1nn(C)c2c(=O)n(CCCOc3ccc(OC(C)(C)C(=O)O)cc3)cnc12 [Example 64, 2-Methyl-2-{4-[3-(1-methyl-7-oxo-3-propyl-1,7-dihydro-pyrazolo[4,3-d]pyrimidin-6-yl)-propoxy]-phenoxy}-propionic acid]	136 to 138	–
CCCc1nn(C)c2c(=O)n(CCCOc3ccc(OC(C)(C)C(=O)O)cc3)c(C)nc12 [Example 66, 2-{4-[3-(1,5-Dimethyl-7-oxo-3-propyl-1,7-dihydro-pyrazolo[4,3-d]pyrimidin-6-yl)-propoxy]-phenoxy}-2-methyl-propionic acid]	158 to 160	–
CCCc1nn(C)c2c(=O)n(CCCNc3ccc(OC(C)(C)C(=O)O)cc3)c(C)nc12 [Example 68, 2-{4-[3-(1,5-Dimethyl-7-oxo-3-propyl-1,7-dihydro-pyrazolo[4,3-d]pyrimidin-6-yl)-propylamino]-phenoxy}-2-methyl-propionic acid]	104 to 106	–
CCCc1nn(C)c2c(=O)n(CCOc3ccc(OC(C)(C)C(=O)OCC)cc3)c(CC)nc12 [Example 69, 2-{4-[2-(5-Ethyl-1-methyl-7-oxo-3-propyl-1,7-dihydro-pyrazolo[4,3-d]pyrimidin-6-yl)-ethoxy]-phenoxy}-2-methyl-propionic acid ethyl ester]	66 to 68	–
CCCc1nn(C)c2c(=O)n(CCOc3ccc(OC(C)(C)C(=O)O)cc3)c(CC)nc12 [Example 70, 2-{4-[2-(5-Ethyl-1-methyl-7-oxo-3-propyl-1,7-dihydro-pyrazolo[4,3-d]pyrimidin-6-yl)-ethoxy]-phenoxy}-2-methyl-propionic acid]	108 to 110	–
CCCc1nn(C)c2c(=O)n(CCCNc3ccc(OC(C)(C)C(=O)O)cc3)c(CC)nc12 [Example 72, 2-{4-[3-(5-Ethyl-1-methyl-7-oxo-3-propyl-1,7-dihydro-pyrazolo[4,3-d]pyrimidin-6-yl)-propylamino]-phenoxy}-2-methyl-propionic acid]	124 to 126	–
CCCc1nn(C)c2c(=O)n(CCCOc3ccc(OC(C)(C)C(=O)O)cc3)c(CC)nc12 [Example 74, 2-{4-[3-(5-Ethyl-1-methyl-7-oxo-3-propyl-1,7-dihydro-pyrazolo[4,3-d]pyrimidin-6-yl)-propoxy]-phenoxy}-2-methyl-propionic acid]	124 to 126	–
CCCc1nn(C)c2c(=O)n(CCNc3ccc(OC(C)(C)C(=O)O)cc3)c(CC)nc12 [Example 76, 2-{4-[2-(5-Ethyl-1-methyl-7-oxo-3-propyl-1,7-dihydro-pyrazolo[4,3-d]pyrimidin-6-yl)-ethylamino]-phenoxy}-2-methyl-propionic acid]	136 to 138	–
CCCc1nn(C)c2c(=O)n(CCCc3ccc(OC(C)(C)C(=O)O)cc3)c(C)nc12.N=C(N)NCCC[C@H](N)C(=O)O [Example 79, Argenine salt of 2-{4-[3-(1,5-dimethyl-7-oxo-3-propyl-1,7-dihydro-pyrazolo[4,3-d]pyrimidin-6-yl)-propyl]-phenoxy}-2-methyl-propionic acid]	–	% reduction in TG [1]: 55%
CCCc1nn(C)c2c(=O)n(CCCc3cccc(OC(C)(CC)C(=O)O)c3)c(C)nc12 (stereo not shown) [Example 87, 2-{3-[3-(1,5-Dimethyl-7-oxo-3-propyl-1,7-dihydro-pyrazolo[4,3-d]pyrimidin-6-yl)-propyl]-phenoxy}-2-methyl-butyric acid]	136 to 138	–
CCCc1nn(C)c2c(=O)n(CCOc3cccc(OC(C)(C)C(=O)OCC)c3)c(C)nc12 [Example 88, 2-{3-[2-(1,5-Dimethyl-7-oxo-3-propyl-1,7-dihydro-pyrazolo[4,3-d]pyrimidin-6-yl)-ethoxy]-phenoxy}-2-methyl-propionic acid ethyl ester]	86 to 88	PPARδ activation ([2]; test compound at 1 μM): 0.3; PPARδ activation ([2]; test compound at 10 μM): 0.6; PPARα activation ([3]; test compound at 1 μM): 1.6; PPARα activation ([3]; test compound at 10 μM): 3.6
CCCc1nn(C)c2c(=O)n(CCOc3ccc(OC4(C(=O)OCC)CCC4)cc3)c(C)nc12 [Example 90, 1-{4-[2-(1,5-Dimethyl-7-oxo-3-propyl-1,7-dihydro-pyrazolo[4,3-d]pyrimidin-6-yl)-ethoxy]-phenoxy}-cyclobutanecarboxylic acid ethyl ester]	132 to 134	–
CCCc1nn(C)c2c(=O)n(CCOc3ccc(OC4(C(=O)O)CCC4)cc3)c(C)nc12 [Example 91, 1-{4-[2-(1,5-Dimethyl-7-oxo-3-propyl-1,7-dihydro-pyrazolo[4,3-d]pyrimidin-6-yl)-ethoxy]-phenoxy}-cyclobutanecarboxylic acid]	188 to 190	–
CCCc1nn(CC)c2c(=O)n(CCOc3cccc(OC(C)(C)C(=O)O)c3)c(C)nc12 [Example 93, 2-{3-[2-(1-Ethyl-5-methyl-7-oxo-3-propyl-1,7-dihydro-pyrazolo[4,3-d]pyrimidin-6-yl)-ethoxy]-phenoxy}-2-methyl-propionic acid]	147 to 149	–
CCCc1nn(C)c2c(=O)n(CCOc3cc(O[C@@](C)(CC)C(=O)O)ccc3Cl)c(C)nc12 [Example 106, S-(−)-2-{4-Chloro-3-[2-(1,5-dimethyl-7-oxo-3-propyl-1,7-dihydro-pyrazolo[4,3-d]pyrimidin-6-yl)-ethoxy]-phenoxy}-2-methyl-butyric acid]	99 to 100	–
